# Tests used:
# Experiment in all cases: MIC, two-fold agar dilution (CLSI), clinical isolates
# Assay type in all cases: cell-based
# [1] = system: methicillin-resistant Staphylococcus aureus (MRSA); settings: for Measured MIC: Table 8, strain and unit inferred, MRSA
# Excerpt: (§1) 1. The invention adopts the two-fold agar dilution method recommended by the operating procedure of antimicrobial susceptibility testing set by American Clinical and Laboratory Standards Institute (CLSI) to determine the Minimum Inhibitory Concentration (MIC) of the test samples against the tested strains.
# [2] = system: methicillin-resistant Staphylococcus epidermidis (MRSE)
# Excerpt: as §1
# [3] = system: Enterococcus faecium (EFM)
# Excerpt: as §1
# [4] = system: methicillin-sensitive Staphylococcus aureus (MSSA)
# Excerpt: as §1
# [5] = system: Escherichia coli (including ESBLs, non-ESBLs)
# Excerpt: as §1
# [6] = system: Moraxella catarrhalis (BCA)
# Excerpt: as §1
# [7] = system: Enterococcus faecalis (EFA)
# Excerpt: as §1
# [8] = system: methicillin-sensitive Staphylococcus epidermidis (MSSE)
# Excerpt: as §1
# [9] = system: Streptococcus pneoumoniae (SPN)
# Excerpt: as §1
compound,measurement,setting,value
"CCCC[C@H](CN(O)C=O)C(=O)N1CCC[C@H]1C(=O)Nc1ccc(F)c[n+]1[O-] [A, reference compound]",Measured MIC,[1],0.5 µg/mL
"CCCC[C@H](CN(O)C=O)C(=O)N1CC=C[C@H]1C(=O)Nc1ccc(F)c[n+]1[O-] [B, reference compound]",Measured MIC,[1],1 µg/mL
"C=C1C[C@@H](C(=O)Nc2ccc(F)c[n+]2[O-])N(C(=O)[C@H](CCCC)CN(O)C=O)C1 [C, reference compound]",Measured MIC,[1],0.5 µg/mL
CCCC[C@H](CN(O)C=O)C(=O)N1CC2(CC2)C[C@H]1C(=O)Nc1ccc(F)c[n+]1[O-] [D],Measured MIC,[1],0.125 µg/mL
"C[C@H]1COc2c(N3CCN(C)CC3)c(F)cc3c(=O)c(C(=O)O)cn1c23 [levofloxacin, reference compound]",Anti-bacterial activity (MIC),[2]; strain MRSE 15-1,16 µg/mL
same,Anti-bacterial activity (MIC),[2]; strain MRSE 15-2,16 µg/mL
same,Anti-bacterial activity (MIC),[2]; strain MRSE 15-3,16 µg/mL
same,Anti-bacterial activity (MIC),[2]; strain MRSE 15-7,16 µg/mL
same,Anti-bacterial activity (MIC),[3]; strain EFM 15-1,> 128 µg/mL
same,Anti-bacterial activity (MIC),[3]; strain EFM 15-2,> 128 µg/mL
same,Anti-bacterial activity (MIC),[3]; strain EFM 15-3,> 128 µg/mL
same,Anti-bacterial activity (MIC),[3]; strain EFM 15-4,> 128 µg/mL
same,Anti-bacterial activity (MIC),[3]; strain EFM 15-5,> 128 µg/mL
same,Anti-bacterial activity (MIC),[3]; strain EFM 15-6,128 µg/mL
same,Anti-bacterial activity (MIC),[4]; strain MSSA 15-3,16 µg/mL
same,Anti-bacterial activity (MIC),[4]; strain MSSA 15-4,0.5 µg/mL
same,Anti-bacterial activity (MIC),[4]; strain MSSA 15-5,64 µg/mL
same,Anti-bacterial activity (MIC),[4]; strain MSSA 15-6,16 µg/mL
same,Anti-bacterial activity (MIC),[1]; strain MRSA 15-1,64 µg/mL
same,Anti-bacterial activity (MIC),[1]; strain MRSA 15-2,> 128 µg/mL
same,Anti-bacterial activity (MIC),[1]; strain MRSA 15-3,> 128 µg/mL
same,Anti-bacterial activity (MIC),[1]; strain MRSA 15-4,> 128 µg/mL
same,Anti-bacterial activity (MIC),[5]; strain ECO+ 15-2,64 µg/mL
same,Anti-bacterial activity (MIC),[5]; strain ECO+ 15-4,1 µg/mL
same,Anti-bacterial activity (MIC),[5]; strain ECO− 15-1,0.03 µg/mL
same,Anti-bacterial activity (MIC),[5]; strain ECO− 15-2,128 µg/mL
same,Anti-bacterial activity (MIC),[5]; strain ECO− 15-3,0.06 µg/mL
same,Anti-bacterial activity (MIC),[5]; strain ECO− 15-4,0.06 µg/mL
same,Anti-bacterial activity (MIC),[6]; strain BCA 14-1,1 µg/mL
same,Anti-bacterial activity (MIC),[6]; strain BCA 14-5,4 µg/mL
same,Anti-bacterial activity (MIC),[6]; strain BCA 14-6,8 µg/mL
same,Anti-bacterial activity (MIC),[6]; strain BCA 14-8,1 µg/mL
same,Anti-bacterial activity (MIC),[7]; strain EFA 15-1,> 128 µg/mL
same,Anti-bacterial activity (MIC),[7]; strain EFA 15-2,> 128 µg/mL
same,Anti-bacterial activity (MIC),[7]; strain EFA 15-4,1 µg/mL
same,Anti-bacterial activity (MIC),[7]; strain EFA 15-5,1 µg/mL
same,Anti-bacterial activity (MIC),[7]; strain EFA 15-6,> 128 µg/mL
same,Anti-bacterial activity (MIC),[7]; strain EFA 15-9,128 µg/mL
same,Anti-bacterial activity (MIC),[8]; strain MSSE 15-3,0.5 µg/mL
same,Anti-bacterial activity (MIC),[8]; strain MSSE 15-4,0.5 µg/mL
same,Anti-bacterial activity (MIC),[8]; strain MSSE 15-5,0.5 µg/mL
same,Anti-bacterial activity (MIC),[8]; strain MSSE 15-6,0.25 µg/mL
same,Anti-bacterial activity (MIC),[9]; strain SPN 16-2,1 µg/mL
same,Anti-bacterial activity (MIC),[9]; strain SPN 16-4,1 µg/mL

# Source: patent US10738028B2, “Spiro three-membered ring, spiro five-membered ring peptide deformylase inhibitor and use thereof in antibacteria and anti-tumor” (priority 2016, dated 2020)
